# According to PMC9714824, “Hexapeptides from mammalian inhibitory hormone hunt activate and inactivate nematode reproduction” (PLOS ONE, 2022):
# Assays:
# PNT2 cells = assay: MTS colorimetric viable cell assay, PNT2; type: cell-based, human; conditions: 30 μM, 27h, 492 nm, triplicate
# Description: (§1) Assays involving a range of peptides from 14mer down to 6mers assessed total viable PC3 or PNT2 cells using a 96-well plate MTS colorimetric assay (CellTiter 96 Aqueous One Solution Cell Proliferation Assay, Promega, Southampton, UK), with absorbance measured at 492 nm. Cells were seeded at 8,000 per well and grown for 27h. Peptides were administered at the outset to a final concentration of 30 μM (in 2 μl) to samples in triplicate. (A higher dosage was used than in the 14mer peptides study to shorten the timecourse of response.) Controls received buffer. Data are OD mean +/ − SEM, with statistical analysis by two tailed t-test. A time course study of the 14mers on PC3s, using the same technique, involved measurements at 24h and 48h.
# (§2) Fig 5 Effects of a range of peptides on human prostate cancer cell growth in vitro. Assays involved a range of peptides from 14mers down to 6mers (Table 1), with viable cells assessed using a 96-well plate MTS colorimetric assay. Absorbance measured at 492 nm. Cells were seeded at 8,000 per well and grown for 27h. Peptides were administered at the outset to a final concentration of 30 μM (in 2 μl) to samples in triplicate. Controls received buffer. Data are OD mean +/- SEM, with statistical analysis by two tailed t-test. * p<0.05; **p<0.025.
# PC3 cells = assay: MTS colorimetric viable cell assay, PC3; type: cell-based, human; conditions: PC3; 30 μM; 27h; MTS, 492 nm; triplicate
# Description: as §1, §2
# DU145 cells = assay: MTS viable cell assay, DU145 (Epistem); type: cell-based, human; conditions: DU145, 72h
# Description: Further assays on human prostate cancer cells were conducted at a contract research organisation (Epistem, Manchester, UK). LNCaP or DU145 cells seeded at 3,000 cells/well across a 96-well plate were cultured in RPMI (phenol red free), 10% FCS, 1% sodium pyruvate, Pen/strep and L-glutamine for 24h before exposure to peptides, at a single dose level in the case of LNCaPs or multiple dose levels in the case of DU145s. (For dose levels see Results.) Controls received vehicle (1% PBS). For the DU145s peptide administration was repeated after 24h. 72h after the first administration (DU145s) or only administration (LNCaP) total viable cell numbers were measured colorimetrically (MTS) using a CellTiter 96 AQueous One Solution Cell Proliferation Assay (Promega, Southampton, UK), following manufacturer’s instructions. Briefly, the media on the plates was replaced with the CellTiter reagent diluted 1:5 in DMEM. The plates were returned to the incubator for 3 hours before reading absorbance at 492 nm on a FLUORstar OPTIMA (BMG Labtech). CellTiter data are the absorbance minus background values (CellTiter plus DMEM), expressed as (OD mean +/− SEM). Statistical analysis was by ANOVA, Dunnett’s multiple comparisons test.
# rat bone marrow cells = assay: Bone marrow cell assay, time-lapse cell counts over 24h; type: cell-based
# Description: The method has been described previously at length. Bone marrow cells, consisting of various cell types including mesenchymal stem cells and fibroblasts, were cultured from adult male rats (Rattus norvegicus, SD strain). These cells were passaged from a growing primary stock in a T75 tissue culture flask (Sarstedt) into a 48 well tissue culture plate (IWAKI), with a cell density of 1 x 10^5/ml. The cell culture media, henceforth referred to as ‘supplemented a-MEMS,’ comprised α-MEMS media supplemented with 10% FCS and 1% penicillin/streptomycin (all Life Technologies, Carlsbad, CA, US). On the day of peptide addition to the cells, the supplemented α-MEMS was gently removed and fresh supplemented α-MEMS added, with 10% test material by volume to achieve micromolar concentrations, untreated controls receiving just fresh supplemented α-MEMS. (For dose levels see legends in respective result figures) All samples were filter sterilised using a Millex-GV […] syringe filter unit (Merck, Kenilworth, NJ, USA). The cells were imaged for 24 h using an incubated Zeiss Axiovert 135M microscope with a Prior Proscan II motorised stage, at 37 °C with a 5% CO2 in air feed. Each well of the 48-well tissue culture plate was then imaged for 24h every 5 min using Metamorph software (MDS Analytical Technologies, Wokingham, UK), with each well having four fields of view. The viability and cell numbers were reviewed by analysing the images captured over the 24h period and cell counts were taken at selected time points using the Metamorph software.
# Fig 6 Bone marrow cells in culture exposed to long peptides. Cells were counted over 24h after exposure to the 14mer peptide EPL001 or its scrambled-sequence control EPL030 at 6μM final concentration or to the 20mer EPL120 at 5μM final concentration, compared to peptide-untreated controls.
# Fig 7 Bone marrow cells in culture exposed to hexapeptides. Cells were counted over 24h after exposure to either EPL016 (= MKPLTG, the ‘Front 6’ of the 14mer EPL001) or EPL036 (= IEPVFT, the ‘Back 6’ of EPL030, the scrambled-sequence control of EPL001) at 1μM final concentration, compared to peptide-untreated controls.
# Caenorhabditis elegans = conditions: cited from earlier work
# Text: As a control compound there was synthesized EPL030, having the aa sequence KLKMNGKNIEPVFT. This is a scrambling of EPL001’s sequence, based on cards drawn at random by one of us (CRM). […] The figures for fecundity were EPL001 +43 ... || Returning to EPL030, the scrambled-sequence EPL001 comparator, this has engendered perplexity by displaying the same activity as EPL001 across multiple mammalian systems. Thus, EPL030 suppressed human prostate cancer cells in vitro more than EPL001 in two laboratories and the proliferation of rat bone marrow cells in vitro in a third.
# Steinernema siamkayai [1] = assay: Nematode pilot study fecundity (S3 Table 1); type: in vivo; conditions: inoculum 5 IJs
# Text: (§3) The attempt was made here to replicate prior fecundity work in another species of nematode, the entomopathogenic (insect slaying) Steinernema siamkayai. Species confirmation involved standard morphological and molecular techniques (S3 File, Nematodes). S. siamkayai is a biocontrol agent of potential economic significance in global agriculture, reducing the need for pesticides. Crucial for deployment is the production of ‘infective juveniles’. These forms penetrate the larvae of insect pests, releasing a bacterium, Xenorhabdus spp., which ultimately kills the larvae. Stock solutions (5 mg mL^-1) of EPL036 (IEPVFT) and EPL630 (KLKMNG) were made up and stored at −20 °C. Lipid Agar plates were prepared by pouring 5 ml media in 60 mm plastic Petri dishes. The plates were inoculated with an overnight-grown bacterial culture of Xenorhabdus spp. (10^9 cfu/ml) at 100 μl/plate and incubated at 28 °C for 24h. Xenorhabdus bacteria are symbiotically associated with S. siamkayai. While multiplying, Xenorhabdus metabolises the constituents of the lipid agar and the resulting by-products are the food supplement for the nematodes that triggers the worms to grow and multiply. From the stock solutions, peptides were introduced individually into the centre of the Lipid Agar plates with Xenorhabdus lawn. Two concentrations of peptide were used, 4 and 8 μL of the 5 mg mL^-1 stock peptide solutions (making 20 and 40 μg of peptide per plate in total, respectively, i.e. ~6 and ~12 μM). Each peptide solution was uniformly spread using an L shaped spreader and allowed to absorb into the agar plate for 10 minutes. Nematodes were harvested beforehand as follows. Third-stage infective juveniles (IJs) of S. siamkayai were used to infect fourth instar Galleria larvae. Following larval death, the Galleria cadavers were placed on a White’s Trap to harvest fresh progeny within 5–6 days. After storage in sterile water, these new-generation IJs were concentrated and inoculated on the bacterial plates on Day 1 at 500 and 1000 IJs /plate. The eight treatments (two inocula at two peptide concentrations) and two controls (two inocula without peptides) were replicated (x3) and incubated at 28 °C. Observations of behaviour and morphology were made at intervals throughout the study, then on Day 5 (i.e. after 4 units of 24h) the nematodes were harvested. Two ml of distilled water was poured on each Petri dish and gently stirred to release the nematodes from the surface. The surface washings containing suspended nematodes were collected in a standard volume of 20 ml of distilled water. The number of mature adults (male and female) and the second-generation juveniles (J1, J2, J3 and pre-adults) were counted using a dissecting microscope (x10 magnification, 4 fields) in 0.05 ml subsamples (x3) and multiplied up to the standard volume of 20 ml.
# Mean number of A) Infective juveniles and B) Adults following inoculation of Petri dishes treated with EPL036 and EPL630 at 4 µL and 8 µL and an untreated control; Petri dishes were initially inoculated with 5 infective juveniles of Steinernema siamkayai following the method used in the main manuscript (Single way ANOVA presented beneath each data set).
# Steinernema siamkayai [2] = assay: Steinernema siamkayai reproduction and development on lipid agar plates with hexapeptides; type: in vivo; parameters: key to Infective juveniles / Adults: counts per plate, scaled from 0.05 ml subsamples to 20 ml; conditions: for Infective juveniles / Adults: S3 Table 2
# Text: as §3
# Fig 2 Developmental impact on Steinernema siamkayai of hexapeptides after 4 days. INOCULUM = founding population of infective juveniles (IJs). ‘Infective juveniles’ on the vertical axis are mostly second-generation IJs. Peptides applied at the start of the study were EPL036 = IEPVFT, […] = KLKMNG. Total = Adults + Infective juveniles. Data are mean +/- SEM (average of 3 replicates). Statistical analysis: ANOVA. Control bars are doubly represented for ease of comparison. Note different vertical axes. […]
# [3] = 4 µL, inoculum 1000, mean of 3 reps
# [4] = 8 µL, inoculum 1000, mean of 3 reps
substance,measurement,setting,value
"MLKTGEKPV [EPL901, first 9 aa of EPL143, from sSgII’s second sorting domain]",Difference in percentage terms between control and test OD means,PNT2 cells,−28.9%
same,Difference in percentage terms between control and test OD means,PC3 cells,−21.2%
"MLKTGEKPVFKNNI [EPL143, Contiguous form of sSgII-14, an anagram of EPL001; benchmark for chi-squared test]",Test mean OD vs control mean,DU145 cells; 0.15 μM,−4.3%
same,Test mean OD vs control mean,DU145 cells; 150 μM (highest concentration),−18.7%
same,Difference in percentage terms between control and test OD means,PNT2 cells,−20.6%
same,Difference in percentage terms between control and test OD means,PC3 cells,−10.2%
"MKPLTG [EPL016, MKPLTG, EPL001 Front 6]",Reduction of the population of rat bone marrow cells,"rat bone marrow cells; 1μM in the medium, controls increased by about the same percentage",18%
same,Increase in cumulative offspring vs untreated controls,Caenorhabditis elegans,50%
"IEPVFT [EPL036, IEPVFT, EPL030 Back 6]",Effect on bone marrow cells in culture,"rat bone marrow cells; 1μM final concentration, in words (Fig 7)",cytostatic
same,Adults,"Steinernema siamkayai [1]; 4 µL, mean of 9 reps",1.7
same,Infective juveniles,"Steinernema siamkayai [1]; 4 µL, mean of 9 reps",43.2
same,Adults,"Steinernema siamkayai [1]; 4 µL, rep 1",1
same,Adults,"Steinernema siamkayai [1]; 4 µL, rep 2",1
same,Adults,"Steinernema siamkayai [1]; 4 µL, rep 3",2
same,Adults,"Steinernema siamkayai [1]; 4 µL, rep 4",1
same,Adults,"Steinernema siamkayai [1]; 4 µL, rep 5",2
same,Adults,"Steinernema siamkayai [1]; 4 µL, rep 6",2
same,Adults,"Steinernema siamkayai [1]; 4 µL, rep 7",2
same,Adults,"Steinernema siamkayai [1]; 4 µL, rep 8",2
same,Adults,"Steinernema siamkayai [1]; 4 µL, rep 9",2
same,Adults,"Steinernema siamkayai [1]; 8 µL, mean of 9 reps",0
same,Infective juveniles,"Steinernema siamkayai [1]; 8 µL, mean of 9 reps",75.8
same,Adults,"Steinernema siamkayai [1]; 8 µL, rep 1",0
same,Adults,"Steinernema siamkayai [1]; 8 µL, rep 2",0
same,Adults,"Steinernema siamkayai [1]; 8 µL, rep 3",0
same,Adults,"Steinernema siamkayai [1]; 8 µL, rep 4",0
same,Adults,"Steinernema siamkayai [1]; 8 µL, rep 5",0
same,Adults,"Steinernema siamkayai [1]; 8 µL, rep 6",0
same,Adults,"Steinernema siamkayai [1]; 8 µL, rep 7",0
same,Adults,"Steinernema siamkayai [1]; 8 µL, rep 8",0
same,Adults,"Steinernema siamkayai [1]; 8 µL, rep 9",0
same,Infective juveniles,"Steinernema siamkayai [2]; 4 µL, inoculum 500, mean of 3 reps",7482
same,Adults,Steinernema siamkayai [2]; [3],446
same,Infective juveniles,Steinernema siamkayai [2]; [3],13686
same,Infective juveniles,"Steinernema siamkayai [2]; 8 µL, inoculum 500, mean of 3 reps",9644
same,Adults,Steinernema siamkayai [2]; [4],10
same,Infective juveniles,Steinernema siamkayai [2]; [4],19161
same,Infective juveniles,"Steinernema siamkayai [2]; 8 µL, inoculum 1000, rep 1",19141
same,Infective juveniles,"Steinernema siamkayai [2]; 8 µL, inoculum 1000, rep 2",19149
same,Infective juveniles,"Steinernema siamkayai [2]; 8 µL, inoculum 1000, rep 3",19193
same,Egg production in females,"Steinernema siamkayai [2]; compared with untreated controls, 48h exposure (Fig 3)",visibly bloated with eggs
same,Time after incubation to fully grown males and females,Steinernema siamkayai [2]; observational,36 h
same,Time for infective juveniles to transform into pre-adults,Steinernema siamkayai [2]; observational,≤ 24 h
same,Increase in cumulative offspring vs untreated controls,Caenorhabditis elegans,+79%
